Results from article PMC3946725 (Archives of toxicology, 2013).

Target: hERG cardiac potassium channel (Kv11.1) (Homo sapiens, UniProt Q12809)
Format: cell-based
Conditions: hamster, cho cells

hERG cardiac potassium channel (Kv11.1), sequence (Q12809 whole entry): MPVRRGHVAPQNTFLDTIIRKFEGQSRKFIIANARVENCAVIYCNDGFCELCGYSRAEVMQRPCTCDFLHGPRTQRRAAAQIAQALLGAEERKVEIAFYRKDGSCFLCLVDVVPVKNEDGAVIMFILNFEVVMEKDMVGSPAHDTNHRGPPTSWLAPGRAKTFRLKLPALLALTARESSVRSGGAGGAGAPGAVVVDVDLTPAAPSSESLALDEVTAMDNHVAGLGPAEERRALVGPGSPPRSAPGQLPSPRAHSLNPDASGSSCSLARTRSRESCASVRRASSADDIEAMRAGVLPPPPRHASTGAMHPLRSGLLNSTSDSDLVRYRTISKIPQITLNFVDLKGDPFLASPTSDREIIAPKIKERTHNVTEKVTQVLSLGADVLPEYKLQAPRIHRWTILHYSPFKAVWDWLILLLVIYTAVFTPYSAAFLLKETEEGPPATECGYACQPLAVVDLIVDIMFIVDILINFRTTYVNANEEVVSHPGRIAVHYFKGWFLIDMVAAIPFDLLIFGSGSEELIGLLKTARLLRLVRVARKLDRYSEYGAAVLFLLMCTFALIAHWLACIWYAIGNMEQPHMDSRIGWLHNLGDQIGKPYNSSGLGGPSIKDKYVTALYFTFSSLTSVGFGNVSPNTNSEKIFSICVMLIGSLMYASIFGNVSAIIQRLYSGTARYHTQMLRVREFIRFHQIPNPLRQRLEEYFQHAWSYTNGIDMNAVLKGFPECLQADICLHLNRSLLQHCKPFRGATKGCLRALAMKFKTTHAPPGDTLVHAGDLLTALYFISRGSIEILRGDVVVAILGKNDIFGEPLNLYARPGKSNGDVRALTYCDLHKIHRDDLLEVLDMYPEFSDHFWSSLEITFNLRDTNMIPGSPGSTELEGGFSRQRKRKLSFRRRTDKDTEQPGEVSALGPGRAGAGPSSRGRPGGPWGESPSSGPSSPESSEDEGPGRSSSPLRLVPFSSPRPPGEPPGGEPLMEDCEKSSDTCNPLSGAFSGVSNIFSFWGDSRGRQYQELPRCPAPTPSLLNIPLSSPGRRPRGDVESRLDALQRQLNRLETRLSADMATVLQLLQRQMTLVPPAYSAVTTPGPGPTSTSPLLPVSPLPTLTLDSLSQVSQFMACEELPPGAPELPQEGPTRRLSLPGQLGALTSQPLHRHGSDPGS

AZA-2
IC50: 2200 nM
